Reference: patent publication US12311056B2, “Composition and method for treatment of neuropsychiatric disorders” (Duke University, priority 2015, dated 2025)

How the values were obtained:
[1] = target: T1, 5-HT2C receptors (Homo sapiens, UniProt P28335); details: cited from earlier work
T1 sequence (P28335 33-458): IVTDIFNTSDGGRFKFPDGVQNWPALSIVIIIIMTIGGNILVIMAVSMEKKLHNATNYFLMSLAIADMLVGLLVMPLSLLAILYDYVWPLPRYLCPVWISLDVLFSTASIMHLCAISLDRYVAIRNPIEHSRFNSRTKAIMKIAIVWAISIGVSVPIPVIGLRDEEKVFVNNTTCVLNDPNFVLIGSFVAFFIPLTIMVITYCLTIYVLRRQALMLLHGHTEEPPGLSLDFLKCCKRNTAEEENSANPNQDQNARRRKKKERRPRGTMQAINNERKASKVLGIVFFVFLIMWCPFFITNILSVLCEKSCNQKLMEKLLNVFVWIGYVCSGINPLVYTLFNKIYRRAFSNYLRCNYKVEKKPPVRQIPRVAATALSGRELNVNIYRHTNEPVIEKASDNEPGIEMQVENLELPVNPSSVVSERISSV

[2] = system: adrenergic α2 receptors; details: cited from earlier work
[3] = system: 5-HT3 receptors; details: cited from earlier work
[4] = target: T2, 5-HT1A receptors (Homo sapiens, UniProt P08908); details: cited from earlier work
T2 sequence (P08908 1-422): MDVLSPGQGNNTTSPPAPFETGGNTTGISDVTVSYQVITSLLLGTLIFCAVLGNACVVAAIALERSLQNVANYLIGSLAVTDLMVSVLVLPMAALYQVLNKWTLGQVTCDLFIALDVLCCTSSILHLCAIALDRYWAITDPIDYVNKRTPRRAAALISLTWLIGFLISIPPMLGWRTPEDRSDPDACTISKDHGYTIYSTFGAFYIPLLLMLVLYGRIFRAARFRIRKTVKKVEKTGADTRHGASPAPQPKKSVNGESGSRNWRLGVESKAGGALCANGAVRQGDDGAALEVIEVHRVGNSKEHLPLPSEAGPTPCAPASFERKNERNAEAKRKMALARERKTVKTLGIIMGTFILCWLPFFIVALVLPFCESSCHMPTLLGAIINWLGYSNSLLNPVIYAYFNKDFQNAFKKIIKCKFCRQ

[5] = target: histamine H1 receptors (Homo sapiens, UniProt P35367); details: cited from earlier work
Chain of histamine H1 receptors (P35367 whole entry): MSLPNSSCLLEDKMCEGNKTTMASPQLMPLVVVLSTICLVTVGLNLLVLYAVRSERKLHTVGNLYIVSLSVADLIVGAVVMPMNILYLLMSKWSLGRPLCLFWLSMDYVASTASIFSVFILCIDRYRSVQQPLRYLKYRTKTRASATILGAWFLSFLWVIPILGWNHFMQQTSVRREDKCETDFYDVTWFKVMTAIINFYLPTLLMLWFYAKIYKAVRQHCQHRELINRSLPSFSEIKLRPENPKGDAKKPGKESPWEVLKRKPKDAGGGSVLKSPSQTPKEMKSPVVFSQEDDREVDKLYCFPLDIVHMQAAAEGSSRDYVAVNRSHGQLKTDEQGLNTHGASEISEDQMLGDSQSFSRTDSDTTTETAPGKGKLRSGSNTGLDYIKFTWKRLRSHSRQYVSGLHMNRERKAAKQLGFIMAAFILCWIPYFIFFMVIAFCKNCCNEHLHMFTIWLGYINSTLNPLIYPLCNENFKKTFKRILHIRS

[6] = target: 5-HT2A receptors (Homo sapiens, UniProt P28223); details: cited from earlier work
Chain of 5-HT2A receptors (P28223 whole entry): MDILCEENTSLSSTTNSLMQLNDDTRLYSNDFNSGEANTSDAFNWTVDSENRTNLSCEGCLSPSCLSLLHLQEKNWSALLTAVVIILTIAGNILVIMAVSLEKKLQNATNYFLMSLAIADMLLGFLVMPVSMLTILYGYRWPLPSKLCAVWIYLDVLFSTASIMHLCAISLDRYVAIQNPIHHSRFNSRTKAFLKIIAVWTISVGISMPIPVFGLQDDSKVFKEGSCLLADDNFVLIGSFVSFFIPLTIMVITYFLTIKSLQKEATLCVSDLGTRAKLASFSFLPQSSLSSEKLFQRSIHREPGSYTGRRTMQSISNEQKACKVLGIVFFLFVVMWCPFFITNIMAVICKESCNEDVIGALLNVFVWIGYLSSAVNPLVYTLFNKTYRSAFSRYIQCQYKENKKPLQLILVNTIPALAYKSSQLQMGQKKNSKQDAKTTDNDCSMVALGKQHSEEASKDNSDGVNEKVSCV

[7] = system: rat animal models of LID; experiment: Levodopa-induced abnormal involuntary movement (LIAIM) in 6-OHDA-lesioned rat models of LID; format: in vivo; details: 2 weeks s.c. treatment; challenge with 25 mg/kg levodopa two days after last treatment; compared to L_SS
Protocol: First, the dopaminergic neurotoxin 6-hydroxydopamine (6-OHDA) was injected into the right medial forebrain bundle of rats to induce unilateral lesions of the nigrostriatal DA pathway. Starting 3 weeks after 6-OHDA lesion, animals were treated twice daily with levodopa methyl ester (25 mg/kg, i.p., bid immediately preceded by 6.5 mg/kg, i.p. benserazide) for 3 weeks to establish LIAIM. Three hour LIAIM scores were quantified twice a week during the levodopa treatment using standard LIAIM rating scales.
Following LIAIM establishment, animals with combined limb, axial and orolingual LIAIM severity scores>25 were treated with one of the 3 treatment regimens for 2 weeks: (1) pergolide (0.1 mg/kg) followed 3.5 hours later by the 5-HT2A/2C antagonist ketanserin (1 mg/kg) [L_PK group]; (2) pergolide+saline 3.5 hours later [L_PS Group]; and (3) DMSO (1% in saline)+saline 3.5 hours later [L_SS]. All injections were given subcutaneously.
Two days after the last L_PK, L_PS or L-SS treatment, all animals were challenged with 25 mg/kg levodopa and their LIAIM scores were again quantified.

[8] = PK analysis of [MPh-IR+Ond-PR2] in the Phase 2A study (24-hour blood PK samples, Day 1 and Day 14)
Description: Ond-PR2 is a bead formulation prepared from ondansetron as the active pharmaceutical ingredient (API). MPh-IR is an immediate-release generic formulation of methylphenidate. [MPh-IR+Ond-PR2] is a single encapsulated dosage form consisting of MPh-IR and Ond-PR2 as Components 1 and 2, respectively. Following in vitro dissolution testing and PK and safety determinations in normal healthy volunteers (Phase 1 trial), we conducted a proof-of-concept, randomized, double-blind, placebo-controlled Phase 2A safety/efficacy clinical trial. A total of 48 patients residing in a residential program and meeting the DSM-4 criteria for primary psychostimulant abuse were screened, and 30 qualifying subjects were randomized into either [MPh-IR+Ond-PR2] or placebo treatment group.
Single capsules containing either [MPh-IR+Ond-PR2] or dextrose (placebo) were administered once a day for 14 days. Subjects also underwent single fMRI-based assessments 1-7 days before the first study dosing (pre-treatment) and again between Day 3 and 7 days after the last dosing (i.e., post-treatment assessment was performed after complete drug washout). Outcome measures for group comparisons were behavioral rating scales and blood-oxygenation-level-dependent (BOLD) functional imaging results under well-established resting-state, cue-reactivity and Go/noGO task paradigms.
On Day 1 and Day 14, 24-four-hour blood PK samples were collected following single oral administrations of a [MPh-IR+Ond-PR2] capsule to: (1) estimate the PK parameters of the two Components (i.e., MPh-IR and Ond-PR2] by quantifying serum methylphenidate and ondansetron concentrations; and (2) determine whether or not any of these parameters change after single daily administrations for 14 days. Descriptive statistics for blood methylphenidate (MPh-IR) and ondansetron (Ond-PR2) concentrations at each time point were summarized as the mean, standard deviation and coefficient of variation. Estimation and statistical analyses of PK parameters were performed with SAS 9.3, and BABE Solution.

[9] = cited from earlier work
[10] = target: CYP2D6 (Homo sapiens, UniProt P10635); details: cited from earlier work
Chain of CYP2D6 (P10635 whole entry): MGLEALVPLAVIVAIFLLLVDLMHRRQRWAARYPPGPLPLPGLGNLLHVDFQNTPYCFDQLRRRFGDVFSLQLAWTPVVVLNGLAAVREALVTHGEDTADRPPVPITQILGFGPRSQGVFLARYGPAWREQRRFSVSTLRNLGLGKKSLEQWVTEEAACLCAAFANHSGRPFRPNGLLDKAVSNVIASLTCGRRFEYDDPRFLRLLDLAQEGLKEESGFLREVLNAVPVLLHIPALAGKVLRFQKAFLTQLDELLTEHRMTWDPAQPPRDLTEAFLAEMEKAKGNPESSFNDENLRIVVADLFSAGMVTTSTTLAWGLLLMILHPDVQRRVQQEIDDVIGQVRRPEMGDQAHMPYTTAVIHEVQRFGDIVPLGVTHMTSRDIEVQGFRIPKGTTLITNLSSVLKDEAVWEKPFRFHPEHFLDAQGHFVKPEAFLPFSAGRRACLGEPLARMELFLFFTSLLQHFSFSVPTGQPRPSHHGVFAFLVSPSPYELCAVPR

[11] = vs R(−) enantiomer of mirtazapine

SMILES: CN1CCN2c3ncccc3Cc3ccccc3C2C1 (racemic) [Mirtazapine, 1,2,3,4,10,14b-hexahydro-2-methylpyrazino[2,1-a]pyrido[2,3-c]benzazepine]
- Affinity to 5-HT2C receptors [1]: high affinities
- Affinity for adrenergic α2 receptors [2]: high affinities
- Affinity for 5-HT3 receptors [3]: high affinities
- Affinity to 5-HT1A receptors [4]: minimal affinity
- Affinity for histamine H1 receptors [5]: high affinities
- Affinity to 5-HT2A receptors [6]: high affinities

SMILES: CCCN1C[C@H](CSC)C[C@@H]2c3cccc4[nH]cc(c34)C[C@H]21 [L_P/S, pergolide]
- Total LIAIM scores (ratios between post- and pre-reversal treatment scores) [7]: No differences

SMILES: COC(=O)C(c1ccccc1)C1CCCCN1 (stereo not drawn) [Methylphenidate, methylphenidate]
- Cmin (minimum blood concentration before the next administration) ([8]; Day 1, mean): 0 ng
- Kel (elimination rate constant) ([8]; Day 1, mean): 0.2 h − 1
- AUC (0-24) ([8]; Day 14, mean): 21.5 ng·h
- Cmin (minimum blood concentration before the next administration) ([8]; Day 14, mean): 0 ng
- Half life(t1/2) ([8]; Day 14, mean): 3.1 h
- Kel (elimination rate constant) ([8]; Day 14, mean): 0.2 h − 1
- AUC(0-t) ([8]; human, in vivo): 21.5 ng·h/mL
- Cmax ([8]; human, in vivo): 3.4 ng/mL
- half-life ([8]; human, in vivo): 3.2 h
- AUC(0-inf) ([8]; human, in vivo, AUC (0-inf), Day 1, mean): 21.6 ng·h/mL
- AUC(0-inf) ([8]; human, in vivo, AUC (0-inf), Day 14, mean): 23.4 ng·h/mL
- Tmax ([8]; human, in vivo, Tmax, Day 1, mean): 1.9 h
- Tmax ([8]; human, in vivo, Tmax, Day 14, mean): 1.7 h
- Cmax ([8]; human, in vivo, po): 4 ng/mL
- Change in Cmax, Cmin, Tmax, t½, AUC (0-24), AUC (0-inf.) and Kel between Day 1 and Day 14 ([8]; once-daily [MPh-IR+Ond-PR2] for 14 days): No significant changes

SMILES: Cc1nccn1CC1CCc2c(c3ccccc3n2C)C1=O (stereo not drawn) [Ondansetron, ondansetron]
- AUC (0-24) ([8]; human, in vivo): 186.4 ng·h
- AUC(0-inf) ([8]; human, in vivo): 226.4 ng·h
- Change in Cmax, Cmin, Tmax, t½, AUC (0-24), AUC (0-inf.) and Kel between Day 1 and Day 14 ([8]; human, in vivo): No significant changes
- Cmax ([8]; human, in vivo): 12.6 ng/mL
- Half life(t1/2) ([8]; human, in vivo): 7.2 h
- Kel (elimination rate constant) ([8]; human, in vivo): 0.1 h − 1
- Tmax ([8]; human, in vivo): 5.8 h
- AUC(0-t) ([8]; human, in vivo, AUC (0-24)): 136 ng·h/mL
- AUC(0-inf) ([8]; human, in vivo, AUC (0-inf)): 179 ng·h/mL
- half-life ([8]; human, in vivo, Half life(t1/2)): 6.9 h
- Tmax ([8]; human, in vivo, Tmax): 6.3 h
- Cmax ([8]; human, in vivo, po): 11.2 ng/mL

SMILES: CN1CCN2c3ncccc3Cc3ccccc3[C@H]2C1 [esmirtazapine]
- Affinity for 5-HT2C receptors in comparison with the R(−) enantiomer [1, 11]: higher affinity
- Affinity for α2 adrenergic receptors in comparison with the R(−) enantiomer [2, 11]: higher affinity
- Clearance in poor metabolizers compared to extensive metabolizers ([9]; CYP2D6 phenotype): twice as low
- Absorption in comparison with the R(−) enantiomer ([9]; enantioselective transport process in the gut wall): may be absorbed faster (but not more extensively)
- Metabolising enzyme [10]: predominantly metabolized by CYP2D6
